Measured values as given in US12502385B2, “Analogs of deutetrabenazine, their preparation and use” (Auspex Pharmaceuticals, Inc., priority 2017, dated 2025).
Values joined by “and” are separate entries in the source; they are usually repeats but may differ in a detail not shown here. Equal entries are not always repeated.

What was measured:
mice = conditions: mouse, in vivo
Description: A 3-day GLP mouse micronucleus study was conducted with Compound 1. That study included a GLP Bacterial Reverse Mutation Assay of deutetrabenazine with Compound 1. That study also included an in vitro Chromosome Aberration Test in Cultured Human Peripheral Blood Lymphocytes. In the study, the highest level of 80 mg/kg/day of deutetrabenazine was not genotoxic in males and females. That dose level was predicted to provide 2.77 mg Compound 1/kg/day in mice, which approximates to a human equivalent dose of 0.23 mg/kg.

[1] = 90-day GLP general rat toxicology study
Description: A 90-day GLP general rat toxicology study was conducted with Compound 1.

Row | SMILES | Compound 1 dose provided at the non-genotoxic deutetrabenazine level (mice; both, 3 day) | human equivalent dose of Compound 1 at the non-genotoxic level (mice; both, 3 day) | NOAEL at 90 day ([1]; in vivo) | genotoxicity (mice; 80 mg/kg/day) | NOAEL at 90 day ([1]; rat)
1 | [2H]C([2H])([2H])Oc1cc2c(cc1OC([2H])([2H])[2H])[C@@H]1CC(=O)[C@H](CC(C)C)CN1CC2 (racemic) [Compound 1, (RS, SR)-1,3,4,6,7,11b-hexahydro-9,10-di(methoxy-d3)-3-(2-methylpropyl)-2H-benzo[a]quinolizin-2-one] | 2.77 mg/kg/day | ~0.23 mg/kg | 0.346 mg/kg/day and ~0.056 mg/kg |  | 
2 | [2H]C([2H])([2H])Oc1cc2c(cc1OC([2H])([2H])[2H])C1CC(=O)C(CC(C)C)CN1CC2 (centres unmarked) [deutetrabenazine, d6-Tetrabenazine] |  |  |  | not genotoxic | 10 mg/kg/day
